Here are results for 6 substances from US9833497B2, “Human originated EGF domain proteins and use of the same” (CHENGDU SOURCEBIO LIMITED-LIABILITY COMPANY, priority 2013, dated 2017).

What all share (format): cell-based
For one experiment, the system named is Enterobacter cloacae. Nature of the experiment: MIC against Gram-negative bacteria: Enterobacter cloacae. As to conditions: 5×10^5 CFU/mL; for MIC E. cloacae: two-fold serial dilution. A digest of the protocol:
(§1)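 Antibacterial activity of purified human EGF domain proteins: two-fold concentration series, triplicate wells, LB broth, 5×10^5 CFU/mL bacteria, 37° C shaking incubation. The lowest concentration without growth defines the MIC.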

The next experiment relates to Proteus vulgaris. Briefly: MIC against Gram-negative bacteria: Proteus vulgaris. As to conditions: 5×10^5 CFU/mL; for MIC P. vulgaris: two-fold serial dilution. A digest of the protocol: as §1
The next experiment concerns E. coli DH5α. Nature of the experiment: Antibacterial activity: MIC and growth curve against E. coli DH5α in 96-well plate. As to conditions: minimal inhibitory concentration against E. coli DH5α; 96-well plate, 5×10^5 CFU/mL, 37° C., judged after 8 h. A digest of the protocol:
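MIC taken as lowest protein level with no bacterial growth, tracked by A600 every 30 min during 37 °C, 175 rpm culture. Two-fold protein series 50-12.5 μg/mL final, triplicate wells, against 5×10^5 CFU/mL of LB-washed mid-log cells.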

Another experiment deals with Citrobacter diversus. Briefly: MIC against Gram-negative bacteria: Citrobacter diversus. The note with it: 5×10^5 CFU/mL; for MIC C. diversus: two-fold serial dilution. A digest of the protocol:
as §1

A further experiment has as its system Moraxella catarrhalis. Briefly: MIC against Gram-negative bacteria: Moraxella catarrhalis. The note with it: 5×10^5 CFU/mL; for MIC M. catarrhalis: two-fold serial dilution. An outline of the steps: as §1
The next experiment deals with Aeromonas hydrophila. Briefly: MIC against Gram-negative bacteria: Aeromonas hydrophila. The note with it: 5×10^5 CFU/mL; for MIC A. hydrophila: two-fold serial dilution. An outline of the steps: as §1
For another experiment, the system named is Proteus mirabilis. Briefly: MIC against Gram-negative bacteria: Proteus mirabilis. The note with it: 5×10^5 CFU/mL; for MIC P. mirabilis: two-fold serial dilution. A digest of the protocol: as §1
A further experiment relates to Klebsiella pneumonia. Briefly: MIC against Gram-negative bacteria: Klebsiella pneumonia. As to conditions: 5×10^5 CFU/mL; for MIC K. pneumonia: two-fold serial dilution. An outline of the steps: as §1
A further experiment has as its system Pseudomonas aeruginosa. Nature of the experiment: MIC against Gram-negative bacteria: Pseudomonas aeruginosa. The note with it: 5×10^5 CFU/mL; for MIC P. aeruginosa: two-fold serial dilution. A digest of the protocol: as §1
In another experiment the test system is Serratia marcescens. Nature of the experiment: MIC against Gram-negative bacteria: Serratia marcescens. The note with it: 5×10^5 CFU/mL; for MIC S. marcescens: two-fold serial dilution. A digest of the protocol:
as §1

The test system of the next experiment is E. coli BL21. Briefly: MIC against Gram-negative bacteria: E. coli BL21. The note with it: 5×10^5 CFU/mL; for MIC E. coli BL21: two-fold serial dilution. A digest of the protocol: as §1
The mark [1] stands for this setting: E. coli BL21, 10 h cultivation at 37° C.
Where [2] appears, read: E. cloacae, 10 h cultivation at 37° C.
[3] abbreviates: P. vulgaris, 10 h cultivation at 37° C.
[4] abbreviates: C. diversus, 10 h cultivation at 37° C.
Where [5] appears, read: M. catarrhalis, 10 h cultivation at 37° C.
Where [6] appears, read: A. hydrophila, 10 h cultivation at 37° C.
[7] abbreviates: P. mirabilis, 10 h cultivation at 37° C.
The mark [8] stands for this setting: K. pneumonia, 10 h cultivation at 37° C.
Where [9] appears, read: P. aeruginosa, 10 h cultivation at 37° C.
Setting [10] is: S. marcescens, 10 h cultivation at 37° C.

The MIC is the smallest concentration in the dilution series that meets the test's criterion for growth inhibition. Read a high MIC as a less susceptible organism. Regarding “PRT134 (IKDRCLPNYCEHGGSCSQSWTTFYCNCSDTSYTGATCH; listed as Homo sapiens)”, the “MIC (μg/mL) E. cloacae” value against Enterobacter cloacae (Enterobacter cloacae, 96-well plate, 37° C., 10 h) was determined as 12.5 µg/mL. Moreover, the “MIC (μg/mL) P. vulgaris” value in the experiment with Proteus vulgaris (Proteus vulgaris, 96-well plate, 37° C., 10 h) stood at 25 µg/mL. This substance also showed an MIC against E. coli DH5α of 12.5 µg/mL. The “MIC (μg/mL) C. diversus” value against Citrobacter diversus (Citrobacter diversus, 96-well plate, 37° C., 10 h) turned out to be 25 µg/mL. The “MIC (μg/mL) M. catarrhalis” value against Moraxella catarrhalis (Moraxella catarrhalis, 96-well plate, 37° C., 10 h) stood at 12.5 µg/mL. In addition, the “MIC (μg/mL) A. hydrophila” value against Aeromonas hydrophila (Aeromonas hydrophila, 96-well plate, 37° C., 10 h) came out at 25 µg/mL. Also, the “MIC (μg/mL) P. mirabilis” value against Proteus mirabilis (Proteus mirabilis, 96-well plate, 37° C., 10 h) is 100 µg/mL. Further, the “MIC (μg/mL) K. pneumonia” value in the experiment with Klebsiella pneumonia (Klebsiella pneumonia, 96-well plate, 37° C., 10 h) is 25 µg/mL. Also, the “MIC (μg/mL) P. aeruginosa” value in the experiment on Pseudomonas aeruginosa (Pseudomonas aeruginosa, 96-well plate, 37° C., 10 h) came to 12.5 µg/mL. Further, the “MIC (μg/mL) S. marcescens” value with Serratia marcescens (Serratia marcescens, 96-well plate, 37° C., 10 h) came to 12.5 µg/mL. For the same substance, in the experiment with E. coli BL21 (E. coli BL21, 96-well plate, 37° C., 10 h), the “MIC (μg/mL) E. coli BL21” value was determined as 12.5 µg/mL.

For “PRT1191 (AEHACTSNPCANGGSCHEVPSGFECHCPSGWSGPTCA; listed as Homo sapiens)”, the “MIC E. cloacae” value in the experiment with Enterobacter cloacae (10 h cultivation at 37° C.) was 25 µg/mL. In addition, the “MIC P. vulgaris” value against Proteus vulgaris (10 h cultivation at 37° C.) amounted to 12.5 µg/mL. The substance also came in with an MIC in the experiment on E. coli DH5α of 12.5 µg/mL. Further, in the experiment with Citrobacter diversus (10 h cultivation at 37° C.), the “MIC C. diversus” value was determined as 12.5 µg/mL. In the experiment on Moraxella catarrhalis (10 h cultivation at 37° C.), the “MIC M. catarrhalis” value was 50 µg/mL. Moreover, the “MIC A. hydrophila” value against Aeromonas hydrophila (10 h cultivation at 37° C.) is 25 µg/mL. For the same substance, the “MIC P. mirabilis” value against Proteus mirabilis (10 h cultivation at 37° C.) was 25 µg/mL. Moreover, the “MIC K. pneumonia” value in the experiment with Klebsiella pneumonia (10 h cultivation at 37° C.) was found to be 25 µg/mL. Also, the “MIC P. aeruginosa” value with Pseudomonas aeruginosa (10 h cultivation at 37° C.) worked out at 50 µg/mL. In addition, in the experiment on Serratia marcescens (10 h cultivation at 37° C.), the “MIC S. marcescens” value worked out at 50 µg/mL. For the same substance, the “MIC E. coli BL21” value against E. coli BL21 (10 h cultivation at 37° C.) was 25 µg/mL.

For “PRT1448 (ACREGRFGQSCQEQCPGISGCRGLTFCLPDPYGCSCGSGWRGSQCQ; listed as Homo sapiens)”, the “MIC against E. cloacae” value against Enterobacter cloacae (Enterobacter cloacae, 10 h cultivation at 37° C.) was 50 µg/mL. In addition, in the experiment on Proteus vulgaris (Proteus vulgaris, 10 h cultivation at 37° C.), the “MIC against P. vulgaris” value came to 12.5 µg/mL. Also, in the experiment with E. coli DH5α, the minimum inhibitory concentration (MIC) is 25 µg/mL. Moreover, in the experiment with Citrobacter diversus (Citrobacter diversus, 10 h cultivation at 37° C.), the “MIC against C. diversus” value is 25 µg/mL. Moreover, the “MIC against M. catarrhalis” value in the experiment with Moraxella catarrhalis (Moraxella catarrhalis, 10 h cultivation at 37° C.) turned out to be 50 µg/mL. Besides, in the experiment with Aeromonas hydrophila (Aeromonas hydrophila, 10 h cultivation at 37° C.), the “MIC against A. hydrophila” value was found to be 12.5 µg/mL. For the same substance, the “MIC against P. mirabilis” value against Proteus mirabilis (Proteus mirabilis, 10 h cultivation at 37° C.) was found to be 25 µg/mL. For the same substance, in the experiment on Klebsiella pneumonia (Klebsiella pneumonia, 10 h cultivation at 37° C.), the “MIC against K. pneumonia” value is 25 µg/mL. Moreover, in the experiment on Pseudomonas aeruginosa (Pseudomonas aeruginosa, 10 h cultivation at 37° C.), the “MIC against P. aeruginosa” value was 12.5 µg/mL. Besides, in the experiment with Serratia marcescens (Serratia marcescens, 10 h cultivation at 37° C.), the “MIC against S. marcescens” value is 25 µg/mL. The “MIC against E. coli BL21” value in the experiment on E. coli BL21 (setting [1]) was 50 µg/mL.

Consider “PRT756 (KIDYCASSNHGCQHECVNTDDSYSCHCLKGFTLNPDKKTCR; listed as Homo sapiens)”, for which the “MIC (μg/mL) E. cloacae” value in the experiment with Enterobacter cloacae (setting [2]) is 12.5 µg/mL. Also, the “MIC (μg/mL) P. vulgaris” value against Proteus vulgaris (setting [3]) is 50 µg/mL. This substance showed an MIC in the experiment on E. coli DH5α of 12.5 µg/mL. Also, the “MIC (μg/mL) C. diversus” value with Citrobacter diversus (setting [4]) is 12.5 µg/mL. Further, in the experiment on Moraxella catarrhalis (setting [5]), the “MIC (μg/mL) M. catarrhalis” value was 50 µg/mL. Besides, the “MIC (μg/mL) A. hydrophila” value with Aeromonas hydrophila (setting [6]) came out at 50 µg/mL. Further, the “MIC (μg/mL) P. mirabilis” value with Proteus mirabilis (setting [7]) came to 12.5 µg/mL. Also, the “MIC (μg/mL) K. pneumonia” value in the experiment with Klebsiella pneumonia (setting [8]) came out at 50 µg/mL. Moreover, in the experiment on Pseudomonas aeruginosa (setting [9]), the “MIC (μg/mL) P. aeruginosa” value stood at 12.5 µg/mL. In addition, in the experiment with Serratia marcescens (setting [10]), the “MIC (μg/mL) S. marcescens” value is 12.5 µg/mL. For the same substance, in the experiment with E. coli BL21 (setting [1]), the “MIC (μg/mL) E. coli BL21” value was 25 µg/mL.

Consider “PRT1150 (HVPWCAHHLCRNNGTCISDNENLFCECPRLYSGK; listed as Homo sapiens)”, for which the “MIC E. cloacae” value in the experiment on Enterobacter cloacae (10 h cultivation at 37° C.) is 12.5 µg/mL. Moreover, in the experiment with Proteus vulgaris (10 h cultivation at 37° C.), the “MIC P. vulgaris” value is 50 µg/mL. The substance further yielded an MIC against E. coli DH5α of 12.5 µg/mL. The “MIC C. diversus” value in the experiment with Citrobacter diversus (10 h cultivation at 37° C.) stood at 25 µg/mL. Further, the “MIC M. catarrhalis” value against Moraxella catarrhalis (10 h cultivation at 37° C.) worked out at 12.5 µg/mL. Further, in the experiment with Aeromonas hydrophila (10 h cultivation at 37° C.), the “MIC A. hydrophila” value is 50 µg/mL. Also, in the experiment with Proteus mirabilis (10 h cultivation at 37° C.), the “MIC P. mirabilis” value is 25 µg/mL. In addition, in the experiment with Klebsiella pneumonia (10 h cultivation at 37° C.), the “MIC K. pneumonia” value was 50 µg/mL. Moreover, in the experiment with Pseudomonas aeruginosa (10 h cultivation at 37° C.), the “MIC P. aeruginosa” value was 12.5 µg/mL. The “MIC S. marcescens” value with Serratia marcescens (10 h cultivation at 37° C.) is 25 µg/mL. In addition, the “MIC E. coli BL21” value with E. coli BL21 (10 h cultivation at 37° C.) was determined as 50 µg/mL.

For “PRT842 (CGCSFHSHCRKRGPGFCDECQDWTWGEHCERCRPGSFGNATGSRGCRP; listed as Homo sapiens)”, the “MIC (μg/mL) E. cloacae” value against Enterobacter cloacae (setting [2]) worked out at 12.5 µg/mL. Besides, the “MIC (μg/mL) P. vulgaris” value against Proteus vulgaris (setting [3]) was 12.5 µg/mL. For the same substance, the MIC against E. coli DH5α worked out at 12.5 µg/mL. Moreover, in the experiment on Citrobacter diversus (setting [4]), the “MIC (μg/mL) C. diversus” value turned out to be 12.5 µg/mL. In the experiment with Moraxella catarrhalis (setting [5]), the “MIC (μg/mL) M. catarrhalis” value came to 25 µg/mL. The “MIC (μg/mL) A. hydrophila” value with Aeromonas hydrophila (setting [6]) came out at 25 µg/mL. Moreover, the “MIC (μg/mL) P. mirabilis” value in the experiment on Proteus mirabilis (setting [7]) was 12.5 µg/mL. In the experiment with Klebsiella pneumonia (setting [8]), the “MIC (μg/mL) K. pneumonia” value stood at 25 µg/mL. Also, the “MIC (μg/mL) P. aeruginosa” value with Pseudomonas aeruginosa (setting [9]) was 25 µg/mL. Further, the “MIC (μg/mL) S. marcescens” value against Serratia marcescens (setting [10]) turned out to be 25 µg/mL. Further, in the experiment with E. coli BL21 (setting [1]), the “MIC (μg/mL) E. coli BL21” value was determined as 12.5 µg/mL.
